Results published in PubChem BioAssay AID248 (DTP/NCI, 2004).
Several values for one entry are separate records, joined by “and”; a condition that tells them apart may be missing. Identical values can stand only once. Toxic doses and inconclusive results are not listed.

Test system: L1210 leukemia ip in BDF1 mice, survival T/C
Assay: NCI In Vivo Anticancer Drug Screen. Data for tumor model L1210 Leukemia (intraperitoneal) in B6D2F1 (BDF1) mice
Conditions: endpoint: mean survival time, higher = longer survival
Outline: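 Tumor was transplanted into mice, which were then dosed with test compound or vehicle alone. Survival was recorded for each group, and the treated figure was expressed relative to the control figure.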

In the case of `C/C=C\C1OC1(C)c1cc(=O)c2c(C)cc3c(c2o1)C(=O)c1c(O)c(C2CC(C)(N(C)C)C(OC(C)=O)C(C)O2)cc(C2CC(N(C)C)C(O)C(C)O2)c1C3=O` (stereo not drawn), the T/C (dose: 0.35 mg/kg/injection, schedule: Q01DX009 (ip), vehicle: saline with Tween-80) is reported as 103 % of control, the T/C (dose: 0.7 mg/kg/injection, schedule: Q01DX009 (ip), vehicle: saline with Tween-80) is reported as 102 % of control and the T/C (dose: 1.4 mg/kg/injection, schedule: Q01DX009 (ip), vehicle: saline with Tween-80) is reported as 96 % of control. For the same compound, the T/C (dose: 2.8 mg/kg/injection, schedule: Q01DX009 (ip), vehicle: saline with Tween-80) was 88 % of control.

For `O=C(O)CCC(=O)CCC(=O)O`, the T/C (dose: 100.0 mg/kg/injection, schedule: Q01DX009 (ip), vehicle: other) was 95 % of control, the T/C (dose: 200.0 mg/kg/injection, schedule: Q01DX009 (ip), vehicle: other) was 106 % of control and the T/C (dose: 400.0 mg/kg/injection, schedule: Q01DX009 (ip), vehicle: other) was 106 % of control.

`CC1=C(Cl)C(=O)C(Cl)=C(Cl)C1=O` was tested, and the T/C (dose: 75.0 mg/kg/injection, schedule: Q01DX001 (ip), vehicle: saline) was 103 % of control.

With `O=NN(CCCl)C(=O)NC1CCSc2ccccc21` (stereo not drawn) the T/C (dose: 18.0 mg/kg/injection, schedule: Q01DX001 (ip), vehicle: other) was 170 % of control and 182 % of control and 219 % of control, the T/C (dose: 26.0 mg/kg/injection, schedule: Q01DX001 (ip), vehicle: other) was 232 % of control and the T/C (dose: 27.0 mg/kg/injection, schedule: Q01DX001 (ip), vehicle: other) was 306 % of control and 315 % of control. For the same compound, the T/C (dose: 40.0 mg/kg/injection, schedule: Q01DX001 (ip), vehicle: other) was 323 % of control and 340 % of control and 356 % of control, the T/C (dose: 60.0 mg/kg/injection, schedule: Q01DX001 (ip), vehicle: other) was 289 % of control and 313 % of control and 365 % of control and the T/C (dose: 187.5 mg/kg/injection, schedule: Q01DX001 (ip), vehicle: other) was 96 % of control.

With `C[N+]1=C2CCCCCC2=C(N)CC1` the T/C (dose: 6.25 mg/kg/injection, schedule: Q01DX009 (ip), vehicle: saline) was 104 % of control, the T/C (dose: 12.5 mg/kg/injection, schedule: Q01DX009 (ip), vehicle: saline) was 100 % of control and the T/C (dose: 25.0 mg/kg/injection, schedule: Q01DX009 (ip), vehicle: saline) was 100 % of control.

`CC(=O)Nc1ccc(C(=O)CCl)cc1` was tested, and the T/C (dose: 25.0 mg/kg/injection, schedule: Q01DX009 (ip), vehicle: Klucel (hydroxypropylcellulose) (HPC)) was 95 % of control, the T/C (dose: 25.0 mg/kg/injection, schedule: Q04DX003 (ip), vehicle: Klucel (hydroxypropylcellulose) (HPC)) was 93 % of control and 101 % of control and the T/C (dose: 50.0 mg/kg/injection, schedule: Q01DX001 (ip), vehicle: carboxymethylcellulose (CMC)) was 101 % of control. For the same compound, the T/C (dose: 50.0 mg/kg/injection, schedule: Q01DX009 (ip), vehicle: Klucel (hydroxypropylcellulose) (HPC)) was 88 % of control, the T/C (dose: 50.0 mg/kg/injection, schedule: Q04DX003 (ip), vehicle: Klucel (hydroxypropylcellulose) (HPC)) was 105 % of control and the T/C (dose: 100.0 mg/kg/injection, schedule: Q04DX003 (ip), vehicle: Klucel (hydroxypropylcellulose) (HPC)) was 110 % of control.
